In PubChem BioAssay AID2060506 (Molecular Pharmacology Branch, DTP, NCI, 2025):
pIC50: −log10 of the molar value.

System: 598228-144-R-J1-PDC complex spheroid viability
Assay: Anticancer human tumor 598228-144-R-J1-PDC patient-derived serous endometrial adenocarcinoma cell line growth inhibition [GQUAD]
Settings: for pIC50: curve of first compound; for viability, T/C: stronger effect = lower value
Method in brief: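 Viability of tumor cells grown as complex spheroids with endothelial and stromal cells, exposed to drug combinations. Top concentration at or near clinical Cmax (else 10 microM), diluted in half-log increments.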

[1] = second compound 0.0316 µM, first compound 0.0316 µM
[2] = second compound 0.0316 µM, first compound 0.1 µM
[3] = second compound 0.0316 µM, first compound 0.316 µM
[4] = second compound 0.0316 µM, first compound 1 µM
[5] = second compound 0.0316 µM, first compound 3.16 µM
[6] = second compound 0.0316 µM, first compound 10 µM
[7] = second compound 0.1 µM, first compound 0.0316 µM
[8] = second compound 0.1 µM, first compound 0.1 µM
[9] = second compound 0.1 µM, first compound 0.316 µM
[10] = second compound 0.1 µM, first compound 1 µM
[11] = second compound 0.1 µM, first compound 3.16 µM
[12] = second compound 0.1 µM, first compound 10 µM
[13] = second compound 0.316 µM, first compound 0.0316 µM
[14] = second compound 0.316 µM, first compound 0.1 µM
[15] = second compound 0.316 µM, first compound 0.316 µM
[16] = second compound 0.316 µM, first compound 1 µM
[17] = second compound 0.316 µM, first compound 3.16 µM
[18] = second compound 0.316 µM, first compound 10 µM
[19] = second compound 1 µM, first compound 0.0316 µM
[20] = second compound 1 µM, first compound 0.1 µM
[21] = second compound 1 µM, first compound 0.316 µM
[22] = second compound 1 µM, first compound 1 µM
[23] = second compound 1 µM, first compound 3.16 µM
[24] = second compound 1 µM, first compound 10 µM
[25] = second compound 3.16 µM, first compound 0.0316 µM
[26] = second compound 3.16 µM, first compound 0.1 µM
[27] = second compound 3.16 µM, first compound 0.316 µM
[28] = second compound 3.16 µM, first compound 1 µM
[29] = second compound 3.16 µM, first compound 3.16 µM
[30] = second compound 3.16 µM, first compound 10 µM
[31] = second compound 10 µM, first compound 0.0316 µM
[32] = second compound 10 µM, first compound 0.1 µM
[33] = second compound 10 µM, first compound 0.316 µM
[34] = second compound 10 µM, first compound 1 µM
[35] = second compound 10 µM, first compound 3.16 µM
[36] = second compound 10 µM, first compound 10 µM
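Also: spheroids exposed to the agents for one week before reading.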
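For viability, T/C in this document: percent of vehicle DMSO control viability so 100% = untreated growth.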

Question: With `C#Cc1c(F)ccc2cc(O)cc(-c3ncc4c(N5CC6CCC(C5)N6)nc(OCC56CCCN5CC(F)C6)nc4c3F)c12` (stereo unspecified) + Cc1[nH]c2ccc(F)cc2c1-c1nc2c3cccnc3c3ncccc3c2[nH]1 as the molecule, how does the pIC50 (second compound 0.0316 µM) read?
Answer: < 5.00

Question: What about the pIC50 (second compound 0.1 µM) of the same molecule?
Answer: < 5.00

Question: What about the pIC50 (second compound 0.316 µM) of the same molecule?
Answer: < 5.00

Question: And the pIC50 (second compound 1 µM)?
Answer: < 5.00

Question: What about the pIC50 (second compound 3.16 µM) of the same molecule?
Answer: > 7.50

Question: What about the pIC50 (second compound 10 µM) of the same molecule?
Answer: < 5.00

Question: And the viability, T/C [1]?
Answer: 124%

Question: What about the viability, T/C [2] of the same molecule?
Answer: 88.7%

Question: And the viability, T/C [3]?
Answer: 120%

Question: And the viability, T/C [4]?
Answer: 100%

Question: What about the viability, T/C [5] of the same molecule?
Answer: 114%

Question: What about the viability, T/C [6] of the same molecule?
Answer: 111%

Question: What about the viability, T/C [7] of the same molecule?
Answer: 121%

Question: What about the viability, T/C [8] of the same molecule?
Answer: 126%

Question: What about the viability, T/C [9] of the same molecule?
Answer: 97.2%

Question: What about the viability, T/C [10] of the same molecule?
Answer: 107%

Question: What about the viability, T/C [11] of the same molecule?
Answer: 143%

Question: What about the viability, T/C [12] of the same molecule?
Answer: 130%

Question: And the viability, T/C [13]?
Answer: 93.7%

Question: What about the viability, T/C [14] of the same molecule?
Answer: 87.4%

Question: And the viability, T/C [15]?
Answer: 87.9%

Question: And the viability, T/C [16]?
Answer: 102%

Question: What about the viability, T/C [17] of the same molecule?
Answer: 115%

Question: And the viability, T/C [18]?
Answer: 98.7%

Question: And the viability, T/C [19]?
Answer: 74.7%

Question: What about the viability, T/C [20] of the same molecule?
Answer: 59.1%

Question: What about the viability, T/C [21] of the same molecule?
Answer: 54.3%

Question: And the viability, T/C [22]?
Answer: 59.7%

Question: And the viability, T/C [23]?
Answer: 71.9%

Question: What about the viability, T/C [24] of the same molecule?
Answer: 62%

Question: What about the viability, T/C [25] of the same molecule?
Answer: 37%

Question: What about the viability, T/C [26] of the same molecule?
Answer: 51.8%

Question: And the viability, T/C [27]?
Answer: 44.6%

Question: What about the viability, T/C [28] of the same molecule?
Answer: 40.2%

Question: What about the viability, T/C [29] of the same molecule?
Answer: 44.2%

Question: What about the viability, T/C [30] of the same molecule?
Answer: 31.9%

Question: And the viability, T/C [31]?
Answer: 69.2%

Question: What about the viability, T/C [32] of the same molecule?
Answer: 62.3%

Question: What about the viability, T/C [33] of the same molecule?
Answer: 64.3%

Question: What about the viability, T/C [34] of the same molecule?
Answer: 58.3%

Question: What about the viability, T/C [35] of the same molecule?
Answer: 60%

Question: And the viability, T/C [36]?
Answer: 52.8%

Question: What does the source list for `O=c1[nH]cc(F)c(=O)[nH]1` + CN(C)c1ccc(Nc2c3ccc(NC(=O)CCN4CCCC4)cc3nc3cc(NC(=O)CCN4CCCC4)ccc23)cc1?
Answer: pIC50 (second compound 0.0316 µM): < 5.00; pIC50 (second compound 0.1 µM): < 5.00; pIC50 (second compound 0.316 µM): < 5.00; pIC50 (second compound 1 µM): < 5.00; pIC50 (second compound 3.16 µM): < 5.00; pIC50 (second compound 10 µM): < 5.00; viability, T/C [1]: 121%; viability, T/C [2]: 95%; viability, T/C [3]: 102%; viability, T/C [4]: 91.3%; viability, T/C [5]: 89.8%; viability, T/C [6]: 90.8%; viability, T/C [7]: 104%; viability, T/C [8]: 106%; viability, T/C [9]: 132%; viability, T/C [10]: 100%; viability, T/C [11]: 96.8%; viability, T/C [12]: 65.5%; viability, T/C [13]: 103%; viability, T/C [14]: 105%; viability, T/C [15]: 104%; viability, T/C [16]: 108%; viability, T/C [17]: 104%; viability, T/C [18]: 97%; viability, T/C [19]: 107%; viability, T/C [20]: 112%; viability, T/C [21]: 106%; viability, T/C [22]: 99.1%; viability, T/C [23]: 111%; viability, T/C [24]: 81.5%; viability, T/C [25]: 81%; viability, T/C [26]: 113%; viability, T/C [27]: 127%; viability, T/C [28]: 98.5%; viability, T/C [29]: 125%; viability, T/C [30]: 61.8%; viability, T/C [31]: 82.7%; viability, T/C [32]: 71.3%; viability, T/C [33]: 95.4%; viability, T/C [34]: 88.7%; viability, T/C [35]: 88.5%; viability, T/C [36]: 64%

Question: How did the pIC50 (second compound 0.0316 µM) turn out when `Nc1ccn(C2OC(CO)C(O)C2(F)F)c(=O)n1` (stereo unspecified) + Cc1[nH]c2ccc(F)cc2c1-c1nc2c3cccnc3c3ncccc3c2[nH]1 was run?
Answer: 6.36

Question: What about the pIC50 (second compound 0.1 µM) of the same molecule?
Answer: 6.87

Question: What about the pIC50 (second compound 0.316 µM) of the same molecule?
Answer: 6.87

Question: And the pIC50 (second compound 1 µM)?
Answer: 7.35

Question: What about the pIC50 (second compound 3.16 µM) of the same molecule?
Answer: > 7.50

Question: What about the pIC50 (second compound 10 µM) of the same molecule?
Answer: > 7.50

Question: What about the viability, T/C [1] of the same molecule?
Answer: 64.6%

Question: And the viability, T/C [2]?
Answer: 54.6%

Question: And the viability, T/C [3]?
Answer: 52.1%

Question: What about the viability, T/C [4] of the same molecule?
Answer: 47.9%

Question: And the viability, T/C [5]?
Answer: 43.9%

Question: What about the viability, T/C [6] of the same molecule?
Answer: 41%

Question: And the viability, T/C [7]?
Answer: 54.8%

Question: What about the viability, T/C [8] of the same molecule?
Answer: 57.5%

Question: And the viability, T/C [9]?
Answer: 45.3%

Question: What about the viability, T/C [10] of the same molecule?
Answer: 40%

Question: What about the viability, T/C [11] of the same molecule?
Answer: 39.9%

Question: And the viability, T/C [12]?
Answer: 44.9%

Question: And the viability, T/C [13]?
Answer: 60.7%

Question: What about the viability, T/C [14] of the same molecule?
Answer: 52.3%

Question: And the viability, T/C [15]?
Answer: 48.3%

Question: And the viability, T/C [16]?
Answer: 39.9%

Question: And the viability, T/C [17]?
Answer: 43.6%

Question: What about the viability, T/C [18] of the same molecule?
Answer: 49.7%

Question: And the viability, T/C [19]?
Answer: 53.2%

Question: And the viability, T/C [20]?
Answer: 49.1%

Question: And the viability, T/C [21]?
Answer: 46.2%

Question: What about the viability, T/C [22] of the same molecule?
Answer: 36.3%

Question: What about the viability, T/C [23] of the same molecule?
Answer: 50.4%

Question: What about the viability, T/C [24] of the same molecule?
Answer: 41.9%

Question: What about the viability, T/C [25] of the same molecule?
Answer: 36.3%

Question: What about the viability, T/C [26] of the same molecule?
Answer: 36.7%

Question: What about the viability, T/C [27] of the same molecule?
Answer: 38.5%

Question: And the viability, T/C [28]?
Answer: 37.9%

Question: And the viability, T/C [29]?
Answer: 32.4%

Question: What about the viability, T/C [30] of the same molecule?
Answer: 44.5%

Question: What about the viability, T/C [31] of the same molecule?
Answer: 51.6%

Question: And the viability, T/C [32]?
Answer: 37.6%

Question: What about the viability, T/C [33] of the same molecule?
Answer: 37.8%

Question: And the viability, T/C [34]?
Answer: 47.5%

Question: What about the viability, T/C [35] of the same molecule?
Answer: 35.7%

Question: What about the viability, T/C [36] of the same molecule?
Answer: 32%
